Source: patent publication US20200131161A1, “NOVEL POCHONIOLIDE COMPOUND AND USE THEREOF” (THE KITASATO INSTITUTE, priority 2017, published 2020)

Experiments:
[1] = test system: HeLaS3 cells, A549 cells, H1299 cells, HT29 cells, Pancl cells, Jurkat cells, HL60 cells, THP-1 cells; assay: Cytotoxicity test in vitro, cell viability by WST-8; format: cell-based; details: at 100 μM, all eight human cell lines, culture for 2 days
Procedure: Cytotoxicity of the pochoniolides of the present invention on various cells was tested. Human cervical cancer-derived HeLaS3 cells, human lung cancer-derived A549 cells, human lung cancer-derived H1299 cells (not expressing p53), human colon adenocarcinoma HT29 cells, human pancreatic cancer […], human acute T cell leukemia-derived Jurkat cells, human promyelocyte leukemia HL60 cells, and human acute monocytic leukemia THP-1 cells were subjected to evaluation of cytotoxicity by measuring cell viability using WST-8 (Dojindo Laboratories). The cells that had reached 80% confluence were counted using a hemocytometer, and a cell suspension was prepared. The cell suspension was dispensed into each well of a 96-well microplate at 100 μl/well using multichannel pipettes. Only a medium was added to a blank (background) well in an amount of 100 μl. HeLaS3 cells, A549 cells, H1299 cells, HT29 cells, and […] cultured for 24 hours in a CO2-incubator, Jurkat cells, HL60 cells, and THP-1 cells were cultured for 1 to 2 hours in a CO2-incubator. Solutions of the compounds diluted 3-fold from 10 mM to 100 μM in methanol or dimethyl sulfoxide were prepared, and the resulting solutions were then added at 1 μl/well (final concentration: 100 μM to 1 μM). After culture was performed for 2 days, 10 μl of the WST-8 reagent was introduced into each well, culture was performed for 30 to 60 minutes, and the absorbance at 460 nm was measured. The cell viability was determined in accordance with the following equation. Cell viability (%)=[(As-Ab)/(Ac-Ab)]×100 • As: Absorbance of sample (a well containing cells, pochoniolide A, B, or C, and a WST-8 solution) • Ac: Absorbance of control (a well containing cells and a WST-8 solution without pochoniolide A, B, or C) • Ab: Absorbance of blank (a well containing a medium and a WST-8 solution without cells)

[2] = test system: Bacillus subtilis ATCC 6633, Micrococcus luteus ATCC 9341, Escherichia coli NIHJKB213, Xanthomonas campestris pv. oryzae KB 88, Candida albicans KF1, Mucor …; format: cell-based
[3] = Solubility (physicochemical properties); details: DMSO, acetone, water, methanol
[4] = Acrylamide produced by Maillard reaction using a mixture of asparagine and glucose (Morinaga acrylamide EIA kit); details: compound at 6 mg/ml final concentration; heated in autoclave 121° C. 20 minutes; untreated sample 51 ng/ml
Procedure: An aqueous solution (0.25 ml) of 100 mg/ml glucose (Wako Pure Chemical Corporation) treated with Chelex 100 (Bio-Rad Laboratories, Inc.) and an aqueous solution (0.5 ml) of 50 mg/ml asparagine (Wako Pure Chemical Corporation) treated with Chelex 100 (Bio-Rad Laboratories, Inc.) were introduced into a 1.5-ml microtube. Pochoniolides A, B, and C dissolved in methanol to a fmal concentration of 6 mg/ml and dihydroquercetin (final concentration 10% methanol) as a positive control were added, and the total amount of the solution was adjusted to 1.0 ml with the addition of distilled water. After the resultant was heated in an autoclave at 121° C. for 20 minutes, the amount of acrylamide produced was measured with the use of Morinaga acrylamide EIA kit (Morinaga Institute of Biological Science, Inc.) in accordance with the protocols.

[5] = Effects for decreasing acrylamide in model food (french fries); details: test compound at final concentration of 1% applied to formed potatoes, fried in oil at 170 to 200 degrees for 1 minute; for concentration of acrylamide produced: control 7 ppm
Procedure: Pochoniolides B and C were evaluated in terms of effects of decreasing acrylamide in a model food (french fries) using dihydroquercetin as a positive control. Commercially available frozen french fries (raw) were thawed and a portion of 10 g was separated. The portion of 10 g was ground in a mortar and formed into individual homogeneous portions of 1 g each, followed by forming. The test compounds were dissolved in a small amount of ethanol to a final concentration of 1%. The ethanol solution was homogeneously applied to the formed potatoes. The potatoes were fried in oil at 170 to 200 degrees for 1 minute, and measurement of the acrylamide concentration was requested to Morinaga Institute of Biological Science, Inc. The results are shown in FIG. 7. While the concentration of acrylamide produced was 7 ppm with the addition of control sample, the concentration of acrylamide produced was 4 ppm with the addition of dihydroquercetin as a positive control. No effects of pochoniolide B for decreasing the amount of acrylamide production were observed. The concentration of acrylamide produced was 2 ppm in the group to which pochoniolide C was added.

Compound | cytotoxicity (cell viability) [1] | antibacterial activity (growth-inhibiting circle) [2] | Solubility [3] | amount of acrylamide produced [4] [ng/mL] | effects for decreasing the amount of acrylamide production [5] | concentration of acrylamide produced [5] [ppm]
O=C(O)CC1OC(=O)C=C1c1coc2cc(O)cc(O)c2c1=O (stereo not shown) [pochoniolide A] | no toxicity | no antibacterial activity | easily soluble in DMSO and acetone, but hardly soluble in water and methanol | 53 | – | –
pochoniolide B | no toxicity | no antibacterial activity | easily soluble in DMSO and acetone, but hardly soluble in water and methanol | 9 | No effects | –
O=C1c2c(O)cc(O)cc2O[C@H](c2ccc(O)c(O)c2)[C@H]1O [dihydroquercetin, reference compound] | – | – | – | 28 | – | 4
O=C(O)CC1OC(=O)C=C1C1Oc2cc(O)cc(O)c2C(=O)C1O (stereo not shown) [pochoniolide C] | no toxicity | no antibacterial activity | easily soluble in DMSO and acetone, but hardly soluble in water and methanol | 18 | – | 2
